Converted amounts (≈) assume the structure as drawn.
Tested on: Pasteurella multocida
Assay: minimum inhibitory concentration (MIC)
Method: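 Broth microdilution MIC (Sensititre BOPO7F bovine plate, CLSI methods) of 19 antimicrobials against field isolates of P. multocida, M. haemolytica, H. somni (deep nasopharyngeal swabs) and E. coli, Enterococcus spp. (rectal swabs) from weaned dairy heifers. Incubation 16-24 h at 35 C. MIC is the lowest concentration preventing visible growth. Values with <= or > lie at the tested range limits. Trimethoprim-sulfamethoxazole is given as the trimethoprim component of a 1:19 mixture.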

CO/N=C(\C(=O)N[C@@H]1C(=O)N2C(C(=O)O)=C(CSC(=O)c3ccco3)CS[C@H]12)c1csc(N)n1 [Ceftiofur]
Conditions | minimum inhibitory concentration [µg/mL]
isolate (source animal id): 10 | ≤ 0.25
isolate (source animal id): 11 | ≤ 0.25
isolate (source animal id): 12 | ≤ 0.25
isolate (source animal id): 19 | ≤ 0.25
isolate (source animal id): 23 | ≤ 0.25
isolate (source animal id): 26 | ≤ 0.25
isolate (source animal id): 98 | ≤ 0.25
isolate (source animal id): 104 | ≤ 0.25
isolate (source animal id): 115 | ≤ 0.25
isolate (source animal id): 117 | ≤ 0.25
isolate (source animal id): 118 | ≤ 0.25
isolate (source animal id): 121 | ≤ 0.25
isolate (source animal id): 124 | ≤ 0.25
isolate (source animal id): 125 | ≤ 0.25
isolate (source animal id): 128 | ≤ 0.25
isolate (source animal id): 131 | ≤ 0.25
isolate (source animal id): 135 | ≤ 0.25
isolate (source animal id): 136 | ≤ 0.25
isolate (source animal id): 140 | ≤ 0.25
isolate (source animal id): 144 | ≤ 0.25
isolate (source animal id): 146 | ≤ 0.25
isolate (source animal id): 150 | ≤ 0.25
isolate (source animal id): 151 | ≤ 0.25
isolate (source animal id): 153 | ≤ 0.25
isolate (source animal id): 155 | ≤ 0.25
isolate (source animal id): 157 | ≤ 0.25
isolate (source animal id): 160 | ≤ 0.25
isolate (source animal id): 164 | ≤ 0.25
isolate (source animal id): 165 | ≤ 0.25
isolate (source animal id): 167 | ≤ 0.25
isolate (source animal id): 168 | ≤ 0.25
isolate (source animal id): 169 | ≤ 0.25
isolate (source animal id): 170 | ≤ 0.25
isolate (source animal id): 171 | ≤ 0.25
isolate (source animal id): 172 | ≤ 0.25
isolate (source animal id): 173 | ≤ 0.25
isolate (source animal id): 174 | ≤ 0.25
isolate (source animal id): 175 | 1 (≈ 1.91 µM)
isolate (source animal id): 176 | ≤ 0.25
isolate (source animal id): 177 | ≤ 0.25
isolate (source animal id): 178 | ≤ 0.25
isolate (source animal id): 179 | ≤ 0.25
isolate (source animal id): 182 | ≤ 0.25
isolate (source animal id): 192 | ≤ 0.25
isolate (source animal id): 193 | ≤ 0.25
isolate (source animal id): 195 | ≤ 0.25
isolate (source animal id): 196 | ≤ 0.25
isolate (source animal id): 197 | ≤ 0.25
isolate (source animal id): 198 | ≤ 0.25
isolate (source animal id): 199 | ≤ 0.25
isolate (source animal id): 200 | ≤ 0.25
isolate (source animal id): 201 | ≤ 0.25
isolate (source animal id): 203 | ≤ 0.25
isolate (source animal id): 204 | ≤ 0.25
isolate (source animal id): 205 | ≤ 0.25
isolate (source animal id): 206 | ≤ 0.25
isolate (source animal id): 207 | ≤ 0.25
isolate (source animal id): 208 | ≤ 0.25
isolate (source animal id): 209 | ≤ 0.25
isolate (source animal id): 210 | ≤ 0.25
isolate (source animal id): 213 | ≤ 0.25
isolate (source animal id): 216 | ≤ 0.25
isolate (source animal id): 223 | ≤ 0.25
isolate (source animal id): 227 | ≤ 0.25
isolate (source animal id): 229 | ≤ 0.25
isolate (source animal id): 233 | ≤ 0.25
isolate (source animal id): 234 | ≤ 0.25
isolate (source animal id): 237 | ≤ 0.25
isolate (source animal id): 241 | ≤ 0.25
isolate (source animal id): 245 | ≤ 0.25
isolate (source animal id): 247 | ≤ 0.25
isolate (source animal id): 250 | ≤ 0.25
isolate (source animal id): 254 | ≤ 0.25
isolate (source animal id): 255 | ≤ 0.25
isolate (source animal id): 258 | ≤ 0.25
isolate (source animal id): 261 | ≤ 0.25
isolate (source animal id): 262 | ≤ 0.25
isolate (source animal id): 269 | ≤ 0.25
isolate (source animal id): 270 | ≤ 0.25
isolate (source animal id): 274 | ≤ 0.25
isolate (source animal id): 275 | ≤ 0.25
isolate (source animal id): 276 | ≤ 0.25
isolate (source animal id): 277 | ≤ 0.25
isolate (source animal id): 278 | ≤ 0.25
isolate (source animal id): 279 | ≤ 0.25
isolate (source animal id): 280 | ≤ 0.25
isolate (source animal id): 284 | ≤ 0.25
isolate (source animal id): 285 | ≤ 0.25
isolate (source animal id): 287 | ≤ 0.25
isolate (source animal id): 290 | ≤ 0.25
isolate (source animal id): 294 | ≤ 0.25
isolate (source animal id): 295 | ≤ 0.25
isolate (source animal id): 296 | ≤ 0.25
isolate (source animal id): 307 | ≤ 0.25
isolate (source animal id): 310 | ≤ 0.25
isolate (source animal id): 311 | ≤ 0.25
isolate (source animal id): 312 | ≤ 0.25
isolate (source animal id): 313 | ≤ 0.25
isolate (source animal id): 315 | ≤ 0.25
isolate (source animal id): 316 | ≤ 0.25

NC[C@@H]1O[C@H](O[C@H]2[C@@H](O)[C@H](O[C@@H]3[C@@H](O)[C@H](N)C[C@H](N)[C@H]3O[C@H]3O[C@H](CN)[C@@H](O)[C@H](O)[C@H]3N)O[C@@H]2CO)[C@H](N)[C@@H](O)[C@@H]1O [Neomycin]
Conditions | minimum inhibitory concentration [µg/mL]
isolate (source animal id): 10 | > 32
isolate (source animal id): 11 | > 32
isolate (source animal id): 12 | > 32
isolate (source animal id): 19 | > 32
isolate (source animal id): 23 | > 32
isolate (source animal id): 26 | > 32
isolate (source animal id): 98 | > 32
isolate (source animal id): 104 | > 32
isolate (source animal id): 115 | 32 (≈ 52.1 µM)
isolate (source animal id): 117 | > 32
isolate (source animal id): 118 | > 32
isolate (source animal id): 121 | > 32
isolate (source animal id): 124 | > 32
isolate (source animal id): 125 | > 32
isolate (source animal id): 128 | > 32
isolate (source animal id): 131 | > 32
isolate (source animal id): 135 | > 32
isolate (source animal id): 136 | > 32
isolate (source animal id): 140 | > 32
isolate (source animal id): 144 | > 32
isolate (source animal id): 146 | > 32
isolate (source animal id): 150 | > 32
isolate (source animal id): 151 | 32 (≈ 52.1 µM)
isolate (source animal id): 153 | > 32
isolate (source animal id): 155 | > 32
isolate (source animal id): 157 | > 32
isolate (source animal id): 160 | 32 (≈ 52.1 µM)
isolate (source animal id): 164 | 32 (≈ 52.1 µM)
isolate (source animal id): 165 | 32 (≈ 52.1 µM)
isolate (source animal id): 167 | > 32
isolate (source animal id): 168 | > 32
isolate (source animal id): 169 | > 32
isolate (source animal id): 170 | > 32
isolate (source animal id): 171 | > 32
isolate (source animal id): 172 | > 32
isolate (source animal id): 173 | > 32
isolate (source animal id): 174 | > 32
isolate (source animal id): 175 | > 32
isolate (source animal id): 176 | > 32
isolate (source animal id): 177 | 16 (≈ 26 µM)
isolate (source animal id): 178 | > 32
isolate (source animal id): 179 | > 32
isolate (source animal id): 182 | > 32
isolate (source animal id): 192 | > 32
isolate (source animal id): 193 | 16 (≈ 26 µM)
isolate (source animal id): 195 | 32 (≈ 52.1 µM)
isolate (source animal id): 196 | 8 (≈ 13 µM)
isolate (source animal id): 197 | > 32
isolate (source animal id): 198 | > 32
isolate (source animal id): 199 | > 32
isolate (source animal id): 200 | > 32
isolate (source animal id): 201 | > 32
isolate (source animal id): 203 | 32 (≈ 52.1 µM)
isolate (source animal id): 204 | > 32
isolate (source animal id): 205 | > 32
isolate (source animal id): 206 | > 32
isolate (source animal id): 207 | > 32
isolate (source animal id): 208 | > 32
isolate (source animal id): 209 | 32 (≈ 52.1 µM)
isolate (source animal id): 210 | > 32
isolate (source animal id): 213 | > 32
isolate (source animal id): 216 | > 32
isolate (source animal id): 223 | > 32
isolate (source animal id): 227 | > 32
isolate (source animal id): 229 | > 32
isolate (source animal id): 233 | > 32
isolate (source animal id): 234 | > 32
isolate (source animal id): 237 | > 32
isolate (source animal id): 241 | > 32
isolate (source animal id): 245 | > 32
isolate (source animal id): 247 | > 32
isolate (source animal id): 250 | > 32
isolate (source animal id): 254 | > 32
isolate (source animal id): 255 | > 32
isolate (source animal id): 258 | > 32
isolate (source animal id): 261 | > 32
isolate (source animal id): 262 | > 32
isolate (source animal id): 269 | > 32
isolate (source animal id): 270 | > 32
isolate (source animal id): 274 | > 32
isolate (source animal id): 275 | > 32
isolate (source animal id): 276 | > 32
isolate (source animal id): 277 | > 32
isolate (source animal id): 278 | > 32
isolate (source animal id): 279 | > 32
isolate (source animal id): 280 | > 32
isolate (source animal id): 284 | > 32
isolate (source animal id): 285 | > 32
isolate (source animal id): 287 | > 32
isolate (source animal id): 290 | > 32
isolate (source animal id): 294 | > 32
isolate (source animal id): 295 | > 32
isolate (source animal id): 296 | > 32
isolate (source animal id): 307 | > 32
isolate (source animal id): 310 | > 32
isolate (source animal id): 311 | > 32
isolate (source animal id): 312 | > 32
isolate (source animal id): 313 | > 32
isolate (source animal id): 315 | > 32
isolate (source animal id): 316 | > 32
